Reference: article PMC7345905, “Microbial Metabolite Urolithin B Inhibits Recombinant Human Monoamine Oxidase A Enzyme” (Metabolites, 2020)
Values joined by “and” are separate entries in the source; they are usually repeats but may differ in a detail not shown here. Equal entries are not always repeated.

Tests used:
[1] = molecular target: T1, human recombinant MAO-A (Homo sapiens, UniProt P21397); assay: MAO-A inhibition kinetics (variable substrate, Lineweaver–Burk plot); format: biochemical; parameters: Michaelis-Menten best-fit Vmax of MAO-A / Michaelis-Menten best-fit Vmax of MAO-A, Average: unit not given here; details: for MAO-A assay signal (luminescence) / Transformed (reciprocal of MAO-A assay signal) / Michaelis-Menten best-fit Vmax of MAO-A: N=1-3
T1 construct: purchased Sigma-Aldrich
T1 sequence (P21397 1-527): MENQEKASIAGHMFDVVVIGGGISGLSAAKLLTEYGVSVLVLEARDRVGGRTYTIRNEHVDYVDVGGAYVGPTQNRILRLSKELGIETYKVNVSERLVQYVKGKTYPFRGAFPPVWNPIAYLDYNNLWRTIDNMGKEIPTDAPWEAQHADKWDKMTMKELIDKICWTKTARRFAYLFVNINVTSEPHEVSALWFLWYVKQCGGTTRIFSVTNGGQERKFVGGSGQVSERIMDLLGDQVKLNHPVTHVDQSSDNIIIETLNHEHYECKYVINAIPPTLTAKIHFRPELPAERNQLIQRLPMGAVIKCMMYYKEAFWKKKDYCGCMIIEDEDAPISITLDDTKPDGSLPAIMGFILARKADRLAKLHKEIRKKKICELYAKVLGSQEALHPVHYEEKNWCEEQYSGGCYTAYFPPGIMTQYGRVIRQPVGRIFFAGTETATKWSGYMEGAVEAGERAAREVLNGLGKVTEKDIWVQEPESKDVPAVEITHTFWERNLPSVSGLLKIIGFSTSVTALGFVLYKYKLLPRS
Description: MAO inhibition assays were performed using a MAO-Glo™ Assay kit (Promega) according to the manufacturer’s instructions. Briefly, 1 µg of human recombinant MAO-A and MAO-B enzyme isoforms were incubated with 160 and 16 µM of MAO substrates, respectively. […] The enzyme reaction was quenched by the addition of a luciferin detection reagent. […] An equal volume of dimethyl sulfoxide (0.1%) was added to the enzyme assay as a control. After 1 h of incubation, the luminescence was measured with a multimode microplate reader (Synergy HT, BioTek, Winooski, VT, USA) to determine the MAO enzyme activities. Initially, the inhibition potential of all the test compounds was evaluated at a concentration of 100 μM. The control reaction (with no inhibitor) with vehicle (DMSO 0.1%) was set at 100% activity. To determine IC50 of the test compounds, the dose dependent enzyme assays were performed. We used range of 0.1 to 50 μM concentrations for MAO-A and 0.1 to 200 μM concentrations of test compounds for the MAO-B enzyme activities. The type of enzyme inhibition was determined using variable concentrations of MAO-A substrate (10–360 µM) and MAO-B substrate (2–64 µM) for the respective enzyme assay. […] A Lineweaver–Burk double reciprocal plot was generated, and the mode of inhibition was determined by visual examination of the plot. The slope of the reciprocal plots was plotted against the inhibitor concentrations and determined the x-axis intercept that represented the inhibitor constant, Ki value.
All experiments were performed in triplicates and data are presented as mean ± standard error of the mean (SEM). The raw data are provided in Supplementary Data, Table S1. Enzyme kinetic data were analyzed using the Lineweaver–Burk plot. Statistical analysis was performed by Student’s t-test using GraphPad Prism Ver. 7.0 (GraphPad Prism Software Inc., San Diego, CA, USA).

[2] = parameters: method as in PMID 31892167; details: rats administered pomegranate juice; cited from earlier work
[3] = UroA 3 µM, MAO-A substrate 10 uM
[4] = UroA 3 µM, MAO-A substrate 20 uM
[5] = UroA 3 µM, MAO-A substrate 40 uM
[6] = UroA 3 µM, MAO-A substrate 80 uM
[7] = UroA 3 µM, MAO-A substrate 160 uM
[8] = UroA 3 µM, MAO-A substrate 320 uM
[9] = UroA 12 µM, MAO-A substrate 10 uM
[10] = UroA 12 µM, MAO-A substrate 20 uM
[11] = UroA 12 µM, MAO-A substrate 40 uM
[12] = UroA 12 µM, MAO-A substrate 80 uM
[13] = UroA 12 µM, MAO-A substrate 160 uM

mode of inhibition of MAO-A ([1]; Lineweaver–Burk plot): mixed mode of inhibition
MAO-A assay signal (luminescence), Average [1, 3]: 962.333
MAO-A assay signal (luminescence) [1, 3]: 1018 and 920 and 949
MAO-A assay signal (luminescence), Average [1, 4]: 1760.33
MAO-A assay signal (luminescence) [1, 4]: 1739 and 1707 and 1835
MAO-A assay signal (luminescence), Average [1, 5]: 3218.67
MAO-A assay signal (luminescence) [1, 5]: 3261 and 3188 and 3207
MAO-A assay signal (luminescence), Average [1, 6]: 6181.33
MAO-A assay signal (luminescence) [1, 6]: 6231 and 6107 and 6206
MAO-A assay signal (luminescence), Average [1, 7]: 11480.7
MAO-A assay signal (luminescence) [1, 7]: 11583 and 11575 and 11284
MAO-A assay signal (luminescence), Average [1, 8]: 20098
MAO-A assay signal (luminescence) [1, 8]: 20331 and 20247 and 19716
Transformed (reciprocal of MAO-A assay signal), Average ([1]; UroA 3 µM, [1/S] 0.003125): 4.976e-5
Transformed (reciprocal of MAO-A assay signal) ([1]; UroA 3 µM, [1/S] 0.003125): 4.9186e-5 and 4.939e-5 and 5.072e-5
Transformed (reciprocal of MAO-A assay signal), Average ([1]; UroA 3 µM, [1/S] 0.00625): 8.7103e-5
Transformed (reciprocal of MAO-A assay signal) ([1]; UroA 3 µM, [1/S] 0.00625): 8.633e-5 and 8.639e-5 and 8.862e-5
Transformed (reciprocal of MAO-A assay signal), Average ([1]; UroA 3 µM, [1/S] 0.0125): 0.0001618
Transformed (reciprocal of MAO-A assay signal) ([1]; UroA 3 µM, [1/S] 0.0125): 0.0001605 and 0.0001637 and 0.0001611
Transformed (reciprocal of MAO-A assay signal), Average ([1]; UroA 3 µM, [1/S] 0.025): 0.0003107
Transformed (reciprocal of MAO-A assay signal) ([1]; UroA 3 µM, [1/S] 0.025): 0.0003067 and 0.0003137 and 0.0003118
Transformed (reciprocal of MAO-A assay signal), Average ([1]; UroA 3 µM, [1/S] 0.05): 0.0005681
Transformed (reciprocal of MAO-A assay signal) ([1]; UroA 3 µM, [1/S] 0.05): 0.000575 and 0.0005858 and 0.000545
Transformed (reciprocal of MAO-A assay signal), Average ([1]; UroA 3 µM, [1/S] 0.1): 0.001039
Transformed (reciprocal of MAO-A assay signal) ([1]; UroA 3 µM, [1/S] 0.1): 0.0009823 and 0.001087 and 0.001054
MAO-A assay signal (luminescence), Average [1, 9]: 978.667
MAO-A assay signal (luminescence) [1, 9]: 993 and 1030 and 913
MAO-A assay signal (luminescence), Average [1, 10]: 1695.33
MAO-A assay signal (luminescence) [1, 10]: 1731 and 1673 and 1682
MAO-A assay signal (luminescence), Average [1, 11]: 3058.33
MAO-A assay signal (luminescence) [1, 11]: 3191 and 2983 and 3001
MAO-A assay signal (luminescence), Average [1, 12]: 5849.33
MAO-A assay signal (luminescence) [1, 12]: 5814 and 5864 and 5870
MAO-A assay signal (luminescence), Average [1, 13]: 10871
MAO-A assay signal (luminescence) [1, 13]: 10945 and 10745 and 10923
MAO-A assay signal (luminescence), Average ([1]; UroA 12 µM, MAO-A substrate 320 uM): 12941.7
Transformed (reciprocal of MAO-A assay signal), Average ([1]; UroA 12 µM, [1/S] 0.003125): 7.727e-5
Transformed (reciprocal of MAO-A assay signal) ([1]; UroA 12 µM, [1/S] 0.003125): 8.026e-5 and 7.7238e-5 and 7.452e-5
Transformed (reciprocal of MAO-A assay signal), Average ([1]; UroA 12 µM, [1/S] 0.00625): 9.199e-5
Transformed (reciprocal of MAO-A assay signal) ([1]; UroA 12 µM, [1/S] 0.00625): 9.137e-5 and 9.307e-5 and 9.155e-5
Transformed (reciprocal of MAO-A assay signal), Average ([1]; UroA 12 µM, [1/S] 0.0125): 0.000171
Transformed (reciprocal of MAO-A assay signal) ([1]; UroA 12 µM, [1/S] 0.0125): 0.000172 and 0.0001705 and 0.0001704
Transformed (reciprocal of MAO-A assay signal), Average ([1]; UroA 12 µM, [1/S] 0.025): 0.000327
Transformed (reciprocal of MAO-A assay signal) ([1]; UroA 12 µM, [1/S] 0.025): 0.0003134 and 0.0003352 and 0.0003332
Transformed (reciprocal of MAO-A assay signal), Average ([1]; UroA 12 µM, [1/S] 0.05): 0.0005899
Transformed (reciprocal of MAO-A assay signal) ([1]; UroA 12 µM, [1/S] 0.05): 0.0005777 and 0.0005977 and 0.0005945
Transformed (reciprocal of MAO-A assay signal), Average ([1]; UroA 12 µM, [1/S] 0.1): 0.001022
Transformed (reciprocal of MAO-A assay signal) ([1]; UroA 12 µM, [1/S] 0.1): 0.001007 and 0.0009709 and 0.001095
Michaelis-Menten best-fit Vmax of MAO-A, Average ([1]; in presence of UroA 3 uM): 79114.7
Michaelis-Menten best-fit Vmax of MAO-A ([1]; in presence of UroA 3 uM): 80970 and 83529 and 72845
Michaelis-Menten best-fit Vmax of MAO-A, Average ([1]; in presence of UroA 12 uM): 65883.7
Michaelis-Menten best-fit Vmax of MAO-A ([1]; in presence of UroA 12 uM): 75205 and 61786 and 60660
Ki ([1]; x-axis intercept of slopes of Lineweaver–Burk plots vs inhibitor concentration): 10 µM
Structure (SMILES): O=c1oc2cc(O)ccc2c2ccc(O)cc12 [UA, urolithin-A]
detection in the brain [2]: detected in the brains
